Results as given in patent publication US8513232B2, “Substituted spirocyclic piperidine derivatives as histamine-3 (H3) receptor ligands” (Cephalon, Inc., priority 2008, dated 2013).
Read-outs that look alike come from different tables or passages of the source.

Key:
[1] = target: T1, rat histamine H3 receptor (Rattus norvegicus, UniProt Q9QYN8); test: Rat H3 radioligand binding ([3H]-N-alpha-methylhistamine, SPA)
T1 construct: encoding the entire 445-amino-acid rat histamine H3 receptor; expressed in transfected cells; membrane preparation
T1 sequence (Q9QYN8 whole entry): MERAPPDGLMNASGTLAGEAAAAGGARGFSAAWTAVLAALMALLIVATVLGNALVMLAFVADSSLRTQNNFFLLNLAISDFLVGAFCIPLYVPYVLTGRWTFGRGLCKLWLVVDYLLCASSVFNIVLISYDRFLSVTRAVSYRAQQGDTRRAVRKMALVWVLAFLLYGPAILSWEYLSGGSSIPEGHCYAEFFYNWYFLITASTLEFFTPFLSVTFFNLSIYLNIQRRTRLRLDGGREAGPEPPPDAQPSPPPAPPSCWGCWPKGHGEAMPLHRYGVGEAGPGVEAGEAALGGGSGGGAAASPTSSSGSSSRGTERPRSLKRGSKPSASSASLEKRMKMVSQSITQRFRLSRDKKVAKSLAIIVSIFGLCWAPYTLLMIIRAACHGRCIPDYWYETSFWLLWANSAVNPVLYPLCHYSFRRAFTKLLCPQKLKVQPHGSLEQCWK
How it was run: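 Membranes from CHO-A3 cells stably expressing full-length rat H3 receptor (10 μg protein/well) incubated 4 h at room temperature, protected from light, with ~1 nM [3H]-N-alpha-methylhistamine and compound (0.01 nM-30 μM) in 50 mM Tris HCl pH 7.4, 5 mM MgCl2, 0.1% BSA. Binding read by SPA; 10 μM clobenpropit defined non-specific binding.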

human H3 receptor = target: T2, human H3 receptor (Homo sapiens, UniProt Q9Y5N1); test: Human H3 radioligand binding ([3H]-N-alpha-methylhistamine, SPA)
T2 construct: expressed in transfected cells
T2 sequence (Q9Y5N1 whole entry): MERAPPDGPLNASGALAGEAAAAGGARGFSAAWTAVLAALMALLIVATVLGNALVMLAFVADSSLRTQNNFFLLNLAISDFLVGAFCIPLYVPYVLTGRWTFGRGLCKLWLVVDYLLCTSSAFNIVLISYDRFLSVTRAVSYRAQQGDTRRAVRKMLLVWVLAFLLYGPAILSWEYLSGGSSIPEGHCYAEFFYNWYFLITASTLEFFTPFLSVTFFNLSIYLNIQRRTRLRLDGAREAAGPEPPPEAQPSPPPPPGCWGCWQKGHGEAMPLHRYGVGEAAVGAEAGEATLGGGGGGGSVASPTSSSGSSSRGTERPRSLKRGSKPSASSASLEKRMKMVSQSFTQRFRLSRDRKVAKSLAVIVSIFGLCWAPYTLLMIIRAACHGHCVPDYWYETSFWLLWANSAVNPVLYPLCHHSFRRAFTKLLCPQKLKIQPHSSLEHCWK
How it was run: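 SPA competition binding on membranes from CHO cells stably expressing human H3 receptor (10 μg protein/well) with ~1 nM [3H]-N-alpha-methylhistamine and compound at 0.01 nM-30 μM. Incubation 4 h at room temperature in 50 mM Tris-HCl pH 7.4, 5 mM MgCl2, 0.1% BSA; non-specific binding defined with 10 μM clobenpropit.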

[2] = rat H3 binding, Table D, read-out: Rat H3 Ki
[3] = human H3 binding, Table D, read-out: Human H3 Ki
[4] = Rat H3 binding, Table B, Examples 136-362, read-out: rat H3 binding Ki
[5] = Human H3 binding, Table B, Examples 136-362, read-out: hum H3 binding Ki
[6] = Table C, rat H3 binding, read-out: Rat H3 Ki
[7] = Table C, human H3 binding, read-out: Human H3 Ki

Ki [1, 2] [nM] | Ki (human H3 receptor; [3]) [nM] | melting point [°C] | SMILES | other results
< 200 | < 200 | 197 to 199 | Cc1ncccc1-c1ccc2c(c1)COC1(CCN(C3CCC3)CC1)O2 [Example 744] | 
< 200 | < 200 | 190 to 193 | CN(C)C(=O)c1ccc(-c2ccc3c(c2)COC2(CCN(C4CCC4)CC2)O3)nc1 [Example 638] | 
< 200 | < 200 | 60 to 62 | Cc1cc(=O)n(CC(F)(F)F)cc1-c1ccc2c(c1)COC1(CCN(C3CCC3)CC1)O2 [Example 755] | 
 |  | 167 to 169 | O=c1[nH]cccc1-c1ccc2c(c1)COC1(CCN(C3CCC3)CC1)O2 [Example 488] | Ki ([1]; read-out: Rat H3 kI): < 200 nM; Ki (human H3 receptor; read-out: Human H3 Ki): < 200 nM
< 200 | < 200 | 292 to 294 | c1cc2c(cc1OCC1CCNCC1)CCC1(CCN(C3CCC3)CC1)O2 [Example 592] | 
 |  | 153 to 155 | CN(C)C(=O)N1CCN(c2ccc3c(c2)COC2(CCN(C4CCC4)CC2)O3)CC1 [Example 287] | Ki [1, 4]: < 200 nM; Ki (human H3 receptor; [5]): < 200 nM
 |  | 55 | O=C(c1ccc(-c2ccc3c(c2)OC2(CCN(C4CCC4)CC2)OC3)cc1)N1CCOCC1 [Example 97] | Ki ([1]; Table A, rat H3 binding, read-out: Rat Ki): 200 to 1000 nM; Ki (human H3 receptor; Table A, human H3 binding, read-out: Human Ki): > 1000 nM
< 200 | < 200 | 152 to 154 | COc1ccc(-c2ccc3c(c2)COC2(CCN(C(C)(C)C)CC2)O3)cn1 [Example 732] | 
 |  | 168 to 170 | COc1ccc(/C=C/c2ccc3c(c2)COC2(CCN(C4CCC4)CC2)O3)nn1 [Example 510] | Ki ([1]; read-out: Rat H3 kI): < 200 nM; Ki (human H3 receptor; read-out: Human H3 Ki): < 200 nM
< 200 | < 200 | 130 to 132 | O=c1cc(-c2ccc3c(c2)COC2(CCN(C4CCC4)CC2)O3)c(Cl)c[nH]1 [Example 667] | 

Further lines, the compound ahead of its results:

SMILES | Ki [1, 2] [nM] | Ki (human H3 receptor; [3]) [nM] | melting point [°C] | other results
c1cc(-c2ccc3c(c2)CCC2(CCN(C4CCC4)CC2)O3)ccc1C1=NCCO1 [Example 158] |  |  | 213 to 215 | Ki [1, 4]: < 200 nM; Ki (human H3 receptor; [5]): < 200 nM
O=c1ccc(-c2ccc3c(c2)COC2(CCN(C4CCC4)CC2)O3)cn1Cc1ccccc1 [Example 553] |  |  | 193 to 196 | Ki ([1]; read-out: Rat H3 kI): < 200 nM; Ki (human H3 receptor; read-out: Human H3 Ki): < 200 nM
O=S1(=O)CCN(c2ccc3c(c2)COC2(CCN(C4CCC4)CC2)O3)CC1 [Example 421] |  |  | 157 to 158 | Ki [1, 6]: < 200 nM; Ki (human H3 receptor; [7]): < 200 nM
O=C(c1ccc(Nc2ccc3c(c2)COC2(CCN(C4CCC4)CC2)O3)cc1)N1CC[C@@H](O)C1 [Example 215] |  |  | 114 to 116 | Ki [1, 4]: < 200 nM; Ki (human H3 receptor; [5]): < 200 nM
FC(F)(F)c1cccnc1N1CCN(c2ccc3c(c2)CCC2(CCN(C4CCC4)CC2)O3)CC1 [Example 367] |  |  | 138 to 139 | Ki [1, 6]: < 200 nM; Ki (human H3 receptor; [7]): < 200 nM
COc1ccc(-c2ccc3c(c2)CCC2(CCN(C4CCC4)CC2)O3)c(C)n1 [Example 797] | < 200 | < 200 | 72 to 73 | 
Cc1cc(C(=O)Nc2ccc3c(c2)COC2(CCN(C4CCC4)CC2)O3)cc(Cl)n1 [Example 196] |  |  | 179 to 180 | Ki [1, 4]: < 200 nM; Ki (human H3 receptor; [5]): < 200 nM
CNC(=O)c1cc(-c2ccc3c(c2)COC2(CCN(C4CCC4)CC2)O3)cs1 [Example 607] | < 200 | < 200 | 186 to 188 | 
CN(C)C(=O)c1cnc(COc2ccc3c(c2)CCC2(CCN(C4CCC4)CC2)O3)cn1 [Example 619] | < 200 | < 200 | 120 to 123 | 
O=C(C1CC1)N1CCN(c2ccc3c(c2)CCC2(CCN(C4CCC4)CC2)O3)CC1 [Example 376] |  |  | 169 to 171 | Ki [1, 6]: < 200 nM; Ki (human H3 receptor; [7]): < 200 nM
O=C(c1ccc(-c2ccc3c(c2)CCC2(CCN(C4CCC4)CC2)O3)cc1)N1CCC[C@H](O)C1 [Example 212] |  |  | 82 to 83.3 | Ki [1, 4]: < 200 nM; Ki (human H3 receptor; [5]): < 200 nM
COc1cc(-c2ccc3c(c2)COC2(CCN(C4CCC4)CC2)O3)ccc1C(N)=O [Example 742] | < 200 | < 200 | 212 to 214 | 
